In ChEMBL document CHEMBL1131014, “Three-dimensional quantitative similarity-activity relationships (3D QSiAR) from SEAL similarity matrices” (J Med Chem, 1998):

target: T1, Corticosteroid-binding globulin (Homo sapiens) (UniProt P08185)
T1 sequence (whole entry): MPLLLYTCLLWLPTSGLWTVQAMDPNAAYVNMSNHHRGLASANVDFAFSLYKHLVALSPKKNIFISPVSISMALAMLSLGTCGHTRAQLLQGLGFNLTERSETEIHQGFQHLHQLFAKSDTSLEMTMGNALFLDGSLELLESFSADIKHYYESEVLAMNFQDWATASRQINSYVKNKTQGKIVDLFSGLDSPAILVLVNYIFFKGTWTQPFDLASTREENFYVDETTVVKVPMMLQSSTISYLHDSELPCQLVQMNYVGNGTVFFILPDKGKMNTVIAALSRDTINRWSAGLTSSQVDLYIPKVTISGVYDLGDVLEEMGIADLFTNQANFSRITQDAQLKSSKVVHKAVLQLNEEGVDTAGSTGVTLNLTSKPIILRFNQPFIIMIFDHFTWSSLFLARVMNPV
Description: Binding affinity to corticosteroid binding globulin

`CC(=O)[C@@]1(O)CC[C@H]2[C@@H]3CC[C@@H]4C[C@H](O)CC[C@]4(C)[C@H]3CC[C@@]21C` and `C[C@]12CC[C@H](O)C[C@@H]1CC[C@@H]1[C@@H]2CC[C@]2(C)[C@@H](O)CC[C@@H]12` are the same in Log K: 5 for the first, 5 for the second.

Going from `CC(=O)[C@@]1(O)[C@H](O)C[C@H]2[C@@H]3CCC4=CC(=O)CC[C@]4(C)[C@H]3CC[C@@]21C` to `CC(=O)[C@@]1(O)CC[C@H]2[C@@H]3CCC4=CC(=O)CC[C@]4(C)[C@H]3CC[C@@]21C`, the Log K rises from 6.25 to 7.74.

Compared with `C[C@]12C[C@H](O)[C@H]3[C@@H](CCC4=CC(=O)CC[C@@]43C)[C@@H]1CC[C@@H]2C(=O)CO`, `C[C@]12C[C@@H](O)[C@H]3[C@@H](CCC4=CC(=O)CC[C@@]43C)[C@@H]1CC[C@@H]2C(=O)CO` is lower in Log K: 7.88 for the first, 7.2 for the second.

First: C[C@]12CC[C@H]3[C@@H](CCC4=CC(=O)CC[C@@H]43)[C@@H]1CC[C@@H]2O
Second: CC(=O)[C@H]1CC[C@H]2[C@@H]3CCC4=CC(=O)CCC4[C@H]3CC[C@]12C (stereo not given in full)
The Log K of the first is lower: 6.14 for the first, 6.82 for the second.

`C[C@]12CCC(=O)C=C1CC[C@@H]1[C@@H]2CC[C@@]2(C)[C@H]1CC[C@]2(O)C(=O)CO` and `C[C@]12CCC(=O)C=C1CCC1[C@@H]2[C@@H](O)C[C@@]2(C)[C@H]1CC[C@]2(O)C(=O)CO` (single isomer, unassigned) are the same in Log K: 7.88 for the first, 7.88 for the second.

First: C[C@]12CCC(=O)C=C1CC[C@@H]1[C@@H]2CC[C@]2(C)C(=O)CC[C@@H]12
Second: C[C@]12CC[C@H]3[C@@H](CCC4=CC(=O)CC[C@@]43C)[C@@H]1CC[C@@H]2O
The Log K of the first is lower: 5.76 for the first, 6.72 for the second.

Going from `C[C@@H]1C[C@@]2(C)C(=CC1=O)CC[C@H]1[C@@H]3CC[C@](O)(C(=O)CO)[C@@]3(C)C[C@H](O)[C@@]12F` to `C[C@]12C=CC(=O)C=C1CCC1[C@@H]2[C@@H](O)C[C@@]2(C)[C@H]1CC[C@]2(O)C(=O)CO` (single isomer, unassigned), the Log K rises from 5.8 to 7.51.

First: CC(=O)OCC(=O)[C@@]1(O)CC[C@H]2C3CCC4=CC(=O)CC[C@]4(C)[C@H]3[C@@H](O)C[C@@]21C (single isomer, unassigned)
Second: C[C@]12CCC(=O)C=C1CCC1[C@@H]2C(=O)C[C@@]2(C)[C@H]1CC[C@]2(O)C(=O)CO (single isomer, unassigned)
The Log K of the first is higher: 7.55 for the first, 6.89 for the second.

Compared with `CC(=O)[C@H]1CC[C@H]2[C@@H]3CC=C4C[C@@H](O)CC[C@]4(C)[C@H]3CC[C@]12C`, `C[C@]12CC[C@H](O)CC1=CC[C@@H]1[C@@H]2CC[C@]2(C)C(=O)CC[C@@H]12` is lower in Log K: 5.25 for the first, 5 for the second.

Going from `CC(=O)[C@H]1[C@H](C)C[C@H]2[C@@H]3CCC4=CC(=O)CC[C@]4(C)[C@H]3CC[C@@]21C` to `CC(=O)[C@H]1CC[C@H]2[C@@H]3CCC4=CC(=O)CC[C@]4(C)[C@H]3CC[C@]12C`, the Log K rises from 7.12 to 7.38.

Compared with `C[C@]12CCC(=O)C=C1CC[C@@H]1[C@@H]2[C@@H](O)C[C@]2(C=O)[C@@H](C(=O)CO)CC[C@@H]12`, `C[C@]12CC[C@H]3[C@@H](CCC4=CC(=O)CC[C@@]43C)[C@@H]1CC[C@@H]2C(=O)CO` is higher in Log K: 6.28 for the first, 7.65 for the second.

Going from `C[C@]12CC[C@@H]3c4ccc(O)cc4CC[C@H]3[C@@H]1C[C@@H](O)[C@@H]2O` to `CC(=O)[C@H]1CC[C@H]2[C@@H]3CCC4=CC(=O)CC[C@]4(C)[C@H]3C(=O)C[C@]12C`, the Log K rises from 5 to 6.78.

target: T2, Corticosteroid-binding globulin (Sus scrofa) (UniProt Q9GK37)
T2 sequence (whole entry): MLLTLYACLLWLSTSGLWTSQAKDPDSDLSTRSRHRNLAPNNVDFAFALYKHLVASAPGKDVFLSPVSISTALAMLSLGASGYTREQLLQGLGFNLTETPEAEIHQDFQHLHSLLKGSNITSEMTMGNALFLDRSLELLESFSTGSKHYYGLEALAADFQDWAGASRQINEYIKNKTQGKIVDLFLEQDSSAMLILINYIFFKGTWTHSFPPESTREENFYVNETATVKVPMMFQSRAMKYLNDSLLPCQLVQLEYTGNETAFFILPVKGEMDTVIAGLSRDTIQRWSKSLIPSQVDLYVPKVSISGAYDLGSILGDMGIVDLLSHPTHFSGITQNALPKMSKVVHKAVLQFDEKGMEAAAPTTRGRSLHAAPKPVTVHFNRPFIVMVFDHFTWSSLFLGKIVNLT
Description: Compound was tested for Corticosteroid binding globulin affinity

`C[C@]12CC[C@@H]3c4ccc(O)cc4CC[C@H]3[C@@H]1CC[C@@H]2O` gave a Log K of 5.
